Where no end group is shown, it is not given here.
T1: mouse Sin3A PAH2 (residues 295-385) (mouse, UniProt Q60520 295-385)
T1 construct: Sin3A, mouse, paired amphipathic helix 2 (PAH2) domain, residues 295-385
T1 sequence (looked up): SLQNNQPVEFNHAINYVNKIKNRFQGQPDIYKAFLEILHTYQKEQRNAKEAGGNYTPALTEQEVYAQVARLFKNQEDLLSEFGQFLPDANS

B1: FITC-labeled SAP25 peptide (sequence 171-186 of the SAP25 protein) (peptide)
peptide: AEMIALAGLLQMSQGE
modifications: also: FITC label, position not given here
notes: SAP25 protein, residues 171-186; where the FITC is attached may be told there; source: synthetic peptide (solid support, Fmoc/t-Bu strategy)
B2: FITC-labeled Mad1 peptide (sequence 6-21 of the Mad1 protein) (peptide)
peptide: RMNIQMLLEAADYLER
modifications: also: FITC label, position not given here
notes: Mad1 protein, residues 6-21; where the FITC is attached may be told there; source: synthetic peptide (solid support, Fmoc/t-Bu strategy)
B3: mouse Sin3A PAH1 (residues 114-195) (domain or fragment, UniProt Q60520 114-195, looked up)
chain: GQQQFQRLKVEDALSYLDQVKLQFGSQPQVYNDFLDIMKEFKSQSIDTPGVISRVSQLFKGHPDLIMGFNTFLPPGYKIEVQ
notes: Sin3A, mouse, paired amphipathic helix 1 (PAH1) domain, residues 114-195
B4: GST-REST, mouse REST (residues 31-120) (domain or fragment, UniProt Q8VIG1 31-120, looked up)
chain: YDLHELSKAELAAPQLIMLANVALTGEASGSCCDYLVGEERQMAELMPVGDNHFSESEGEGLEESADLKGLENMELGSLELSAVEPQPVF
notes: RE1 silencing transcription factor (REST), mouse, residues 31-120
B5: Mad1 peptide (sequence 6-21 of the Mad1 protein) (peptide)
peptide: RMNIQMLLEAADYLER
notes: Mad1 protein, residues 6-21; source: synthetic peptide (solid support, Fmoc/t-Bu strategy)
B6: SAP25 peptide (sequence 171-186 of the SAP25 protein) (peptide)
peptide: AEMIALAGLLQMSQGE
notes: SAP25 protein, residues 171-186; source: synthetic peptide (solid support, Fmoc/t-Bu strategy)
B7: PAH2: mouse Sin3A PAH2 (residues 295–385) (protein)
chain: T1 sequence (looked up)

How the values were obtained:
Wnt/β-catenin pathway = experiment: Signaling pathway study, Wnt/β-catenin pathway inhibitors in Sin3A knockdown P19 cells; type: cell-based, mouse; details: for transcriptional level of NeuroD1 (in words): RT-PCR; for neurogenesis inducing capability of Sin3A-silenced cells (in words) / translational level of β-catenin (in words): versus untreated cells; for neurogenesis inducing capability of Sin3A-silenced cells (in words): at least three experiments; for translational level of β-catenin (in words): western blot
[1] = test system: complex between Tcf4 and β-catenin; details: downstream inhibitor for the Wnt/β-catenin pathway; no reference given; cited from earlier work
P19 cells = experiment: Astrocyte differentiation of P19 cells (GFAP and S100); type: cell-based, mouse; details: 1 μM retinoic acid, 10 days, untransfected P19 cells; Tuj1, GFAP, S100 immunocytochemistry
[2] = test system: PDZ domain of Dishevelled (Dvl/Dsh) protein; details: upstream inhibitor for the Wnt/β-catenin pathway; ref [28]; cited from earlier work
Shh signaling pathway = experiment: Signaling pathway study, Shh pathway inhibitor in Sin3A knockdown P19 cells; type: cell-based, mouse; details: 30 μM Cur61414, 10 days; Tuj1 immunocytochemistry, western blot, RT-PCR; at least three experiments
Method: Figure 2 Signaling pathways associated with Sin3A knockdown-induced neurogenesis in P19 cells. (a–c) Sin3A knockdown P19 cells were incubated for 10 days in the absence and presence of an inhibitor for the Wnt pathway, 30 μM NSC668036 or 25 nM PFK118-310. (a) The cells were immunostained with Tuj1 antibody ([…]). (b) Expression levels of β-catenin and Tuj1 were examined by using western blot analysis. (c) Transcriptional levels of Tuj1 and NeuroD1 were examined by using RT-PCR. (d-e) Sin3A knockdown P19 cells were incubated for 10 days in the absence and presence of an inhibitor for the Shh pathway, 30 μM Cur61414. (d) The cells were immunostained with Tuj1 antibody ([…]). (e) The expression level of Tuj1 was examined by using western blot and (f) RT-PCR analyses. All experiments were conducted at least three times.
SMART™ BCA Protein Assay Kit (iNtRON Biot echnology). […]
Sin3A and Sin3B knockdown P19 cells were incubated for 10 days without any treatment. mRNA samples were isolated using an mRNA extraction kit (iNtRON Biotechnology, Inc.) according to the manufacture’s protocol. Samples were analyzed in duplicates on the GeneChip® Mouse Gene 2.0 ST Array (Affymetrix). […]

smoothened (SMO) = test system: smoothened (SMO); parameters: method as in PMID 12679522; details: Shh signaling pathway; ref [30]; cited from earlier work
[3] = target: B3; experiment: fluorescence polarisation; FITC-labeled Mad1 and SAP25 peptides incubated separately with various concentrations of PAH1 and PAH2; details: both partners purified
[4] = target: T1, mouse Sin3A PAH2 (residues 295-385); experiment: as above; details: both partners purified
[5] = test system: mouse REST (residues 31–120); experiment: ELISA binding of Sin3A PAH1 and PAH2 domains to REST; details: wells coated with PAH1 or PAH2 (1 μg/mL), GST-REST 0-2 μg/mL, 2 h, mean ± s.d., n = 3
[6] = target: B4; experiment: ELISA; Sin3A PAH1 and PAH2 with mouse REST (residues 31-120); who was coated is not told for this experiment; details: both partners purified
[7] = target: T1, mouse Sin3A PAH2 (residues 295-385); experiment: as above; details: both partners purified
[8] = target: T1, mouse Sin3A PAH2 (residues 295-385); experiment: ELISA; competition: PAH1 or PAH2 (1 ug/mL) coated wells pre-incubated 2 h with various concentrations of SAP25 or Mad1 peptide, then GST-REST (2 ug/mL) for 2 h; detected with anti-GST antibody and HRP conjugated secondary antibody; details: both partners purified
[9] = target: B3; experiment: as above; details: both partners purified

In the case of Cn1ncnc2c(=O)n(C)c(=O)nc1-2 [PKF118-310], the “transcriptional level of NeuroD1 (in words)” value (Wnt/β-catenin pathway; 25 nM PKF118-310, 10 days) is reported as “greatly reduced”, the “neurogenesis inducing capability of Sin3A-silenced cells (in words)” value (Wnt/β-catenin pathway; 25 nM PKF118-310, 10 days) is reported as “attenuated” and the “translational level of β-catenin (in words)” value (Wnt/β-catenin pathway; 25 nM PKF118-310, 10 days) is reported as “markedly decreased”. For the same molecule, the “inhibition of Tcf4/β-catenin complex formation (in words)” value [1] was “blocks the formation of the complex between Tcf4 and β-catenin”.

With CC1=C(/C=C/C(C)=C/C=C/C(C)=C/C(=O)O)C(C)(C)CCC1 [RA, retinoic acid] the “neurogenesis and astrogenesis of RA-treated P19 cells (in words)” value (P19 cells) was “underwent neurogenesis and astrogenesis”.

With CC(NC(=O)C(OC(=O)C(C)NC(=O)OC(C)(C)C)C(C)C)C(=O)OC(C(=O)O)C(C)C (stereo not shown) [NSC668036] the “transcriptional level of NeuroD1 (in words)” value (Wnt/β-catenin pathway; 30 μM NSC668036, 10 days) was “greatly reduced”, the “neurogenesis inducing capability of Sin3A-silenced cells (in words)” value (Wnt/β-catenin pathway; 30 μM NSC668036, 10 days) was “attenuated” and the “translational level of β-catenin (in words)” value (Wnt/β-catenin pathway; 30 μM NSC668036, 10 days) was “markedly decreased”. For the same molecule, the “binding to PDZ domain and inhibition of Dvl-Frizzled interaction (in words)” value [2] was “binds to the PDZ domain of Dishevelled (Dvl/Dsh) protein, a key component of Wnt signaling, and inhibits its interaction with Frizzled (Fzd)”.

In the case of COc1cccc(CN(C(=O)CC(C)(C)C)[C@H]2C[C@@H](C(=O)N3CCNCC3)N(Cc3ccc4c(c3)OCO4)C2)c1 [Cur61414], the “neurogenesis-inducing ability of Sin3A-knockdown cells (in words)” value (Shh signaling pathway) is given as “greatly reduced” and the “inhibition of smoothened (in words)” value (smoothened (SMO)) is given as “a known inhibitor of smoothened (SMO)”.

B1: binds [3].

B2: binds [4].

With B3 the “binding to REST (in words)” value [5] was “bind with near equal strengths to REST” and the binding result [6] was “binds”.

B4: binds [7].

B5: binds [8].

B6: binds [9].

With B7 the “binding to REST (in words)” value [5] was “bind with near equal strengths to REST”.

Source: article PMC5356016, “Suppression of Sin3A activity promotes differentiation of pluripotent cells into functional neurons” (Scientific Reports, 2017)
